# Assay results from patent US7951403B2, “Method of making pharmaceutical multiparticulates” (Pfizer Inc., priority 2003, dated 2011).
# Experiment: Azithromycin dihydrate crystallinity in molten carrier mixtures with varying water, by PXRD
# Format: physicochemical
# Description: Another way to determine the activity of volatile species in crystalline drug at the processing conditions is by measuring the change in the crystalline state of the drug as a function of the amount of volatile species present in the molten mixture. A series of blends of the crystalline drug, the carrier, and varying amounts of volatile species are prepared and placed into sealed containers. The containers are then heated to the processing temperature used to form the multiparticulates and held at this temperature for a period of time, such as 90 minutes. During this time, a sample of the container's atmosphere, i.e., the container's “headspace,” can be taken and the partial pressure of volatile species in the headspace can be measured using standard techniques, such as by gas chromatography. The containers are then cooled and the concentration of the desired crystalline form of the drug in each sample can be determined using standard techniques, as described below. The concentration of the desired crystalline form of the drug in the sample is then plotted versus the amount of volatile species included in the blend or the concentration of volatile species present in the headspace. […] The amount of the desired crystalline form of the drug in the samples and in multiparticulates can be determined using Powder X-Ray Diffraction (PXRD) analysis. In an exemplary procedure, PXRD analysis may be performed on a Bruker AXS D8 Advance diffractometer. In this analysis, samples of about 500 mg are packed in Lucite sample cups and the sample surface smoothed using a glass microscope slide to provide a consistently smooth sample surface that is level with the top of the sample cup. Samples are spun in the φ plane at a rate of 30 rpm to minimize crystal orientation effects. The X-ray source (S/B KCuα, λ=1.54 Å) is operated at a voltage of 45 kV and a current of 40 mA. Data for each sample are collected over a period of about 20 to 60 minutes in continuous detector scan mode at a scan speed of about 1 to 15 seconds/step and a step size of 0.02°/step. Diffractograms are collected over the 2θ range of 4° to 30°. The crystallinity of the test sample is determined by comparison with two or more calibration standards consisting of physical mixtures of crystalline drug and carrier. Each physical mixture is blended together 15 minutes on a Turbula mixer. Using the instrument software, the area under the diffractogram curve is integrated over the 2θ range using a linear baseline. This integration range includes as many drug-specific peaks as possible while excluding carrier-related peaks. A linear calibration curve of percent crystalline drug versus the area under the diffractogram curve is generated from the calibration standards. The crystallinity of the test sample is then determined using these calibration results and the area under the curve for the test sample. Results are reported as a mean percent drug crystallinity by crystal mass. The amount of water required to maintain the dihydrate form of azithromycin while forming multiparticulates by a melt-congeal process was determined as follows. The composition of the multiparticulates was 50 wt % azithromycin dihydrate, 46 wt % of the matrix excipient COMPRITOL 888 ATO (a mixture of 13 to 21 wt % glyceryl mono-behenate, 40 to 60 wt % glyceryl di-behenate, and about 35 wt % glyceryl tri-behenate from Gattefossé Corporation of Paramus, N.J.), and 4 wt % of the poloxamer dissolution enhancer PLURONIC F127 (polyoxyethylene-polyoxypropylene block copolymer, from BASF Corporation of Mt. Olive, N.J.). Mixtures of these materials containing varying amounts of water were prepared and analyzed by PXRD. To form each mixture, 100 g azithromycin dihydrate, 92 g of the COMPRITOL 888 ATO, and 8 g of the PLURONIC F127 were added to a water-jacketed stainless steel sealed vessel. Various amounts of water were added to each mixture to obtain varying water concentrations. […]
smiles,measurement,setting,value
"CC[C@H]1OC(=O)[C@H](C)[C@@H](O[C@H]2C[C@@](C)(OC)[C@@H](O)[C@H](C)O2)[C@H](C)[C@@H](O[C@@H]2O[C@H](C)C[C@H](N(C)C)[C@H]2O)[C@](C)(O)C[C@@H](C)CN(C)[C@H](C)[C@@H](O)[C@]1(C)O [Azithromycin Dihydrate, 9a-aza-9a-methyl-9-deoxo-9a-homoerythromycin A]",Azithromycin Dihydrate Crystallinity,"Water in melt sample 0.35 wt %, same mixture, 90 min at 90° C.",57 wt %
same,Azithromycin Dihydrate Crystallinity,"Water in melt sample 0.45 wt %, same mixture, 90 min at 90° C.",68 wt %
same,Azithromycin Dihydrate Crystallinity,"Water in melt sample 1.88 wt %, same mixture, 90 min at 90° C.",91 wt %
same,Azithromycin Dihydrate Crystallinity,"Water in melt sample 2.22 wt %, same mixture, 90 min at 90° C.",93 wt %
same,Azithromycin Dihydrate Crystallinity,"Water in melt sample 3.08 wt %, 50/46/4 azithromycin dihydrate/COMPRITOL 888 ATO/PLURONIC F127, stirred 90 min at 90° C., sealed vessel",95 wt %
same,water needed in the mixtures to maintain high levels of azithromycin dihydrate crystallinity in the melt,"melt at 90° C., COMPRITOL 888 ATO/PLURONIC F127 carrier",at least 2.2 wt %
